In patent US8575091B1, “Amylin analogues and pharmaceutical compositions thereof” (Novo Nordisk A/S, priority 2012, dated 2013):
Numbered stars: 1 amine (or outer) side, 2 acyl side, 3 side chain; on linkers, the order of the positions; unused ones are H or OH. Bridge positions count the residues as written; N and C are the ends. Side chains are listed from the residue outwards. Peptide text beside a SMILES is read from it. * marks the point of attachment. C20 diacid = O=C(O)CCCCCCCCCCCCCCCCCCC(=O)*; γGlu = O=C(O)[C@H](CCC(=O)[*:2])N[*:1]

Columns and labels:
[1] = target: T1, human amylin receptor (amylin 3(a) receptor: human calcitonin receptor + RAMP-3) (Homo sapiens, UniProt O60896+P30988); assay: Assay (II)a functional assay, human amylin receptor (CRE luciferase, BHK cells); format: cell-based
T1 construct: expressed in transfected cells
T1 sequence (P30988 25-474): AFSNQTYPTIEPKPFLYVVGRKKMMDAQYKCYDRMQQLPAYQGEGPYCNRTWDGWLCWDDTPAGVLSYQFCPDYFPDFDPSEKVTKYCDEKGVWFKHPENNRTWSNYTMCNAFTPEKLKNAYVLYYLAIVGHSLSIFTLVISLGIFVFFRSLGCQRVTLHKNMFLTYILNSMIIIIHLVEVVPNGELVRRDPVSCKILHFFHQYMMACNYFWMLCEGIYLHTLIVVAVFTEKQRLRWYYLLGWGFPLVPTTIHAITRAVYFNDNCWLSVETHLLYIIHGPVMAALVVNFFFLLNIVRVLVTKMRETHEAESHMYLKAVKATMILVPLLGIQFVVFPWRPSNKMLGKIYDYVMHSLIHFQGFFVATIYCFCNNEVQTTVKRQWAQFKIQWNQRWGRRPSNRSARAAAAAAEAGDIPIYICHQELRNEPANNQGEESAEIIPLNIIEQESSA
T1 sequence (O60896 24-148 partner): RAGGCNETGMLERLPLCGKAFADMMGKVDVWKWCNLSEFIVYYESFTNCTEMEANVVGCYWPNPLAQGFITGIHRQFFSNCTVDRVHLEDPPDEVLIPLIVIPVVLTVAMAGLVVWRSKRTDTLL

human amylin receptor = target: T2, human amylin receptor (Homo sapiens, UniProt O60896+P30988); assay: Assay (V) binding to the human amylin receptor (SPA, 125I-rat amylin)
T2 construct: expressed in transfected cells
T2 sequence (P30988 25-474): T1 sequence (P30988 25-474)
T2 sequence (O60896 24-148 partner): T1 sequence (O60896 24-148 partner)
Experimental: The binding assay was performed using scintillation proximity assay (SPA) beads (RPNQ0001) from PerkinElmer and cell membranes from the Amylin 3(a)/CRE-luc cells (as described in Assay (II)) were used. Membranes were prepared in the following way; the cells were rinsed with PBS and incubated with Versene for approximately 5 min before harvesting. The cells were flushed with PBS and the cell-suspension was centrifuged for 5 min at 1000 rpm. […] The resulting pellet was resuspended in buffer 2 and protein concentration was measured (BCA protein Assay, Pierce). The homogenate was kept cold during the whole procedure. The membranes were kept at −80° C. until use. The assay was performed in a 384 well Optiplate (PerkinElmer) in a total volume of 40 ul. Membranes were mixed with SPA beads. Final concentration of membranes 35 ng/μL final and SPA beads was 0.05 mg/well. Test-compounds were dissolved in DMSO and further diluted in assay buffer (50 mM Hepes, pH 7.4, 1 mM CaCl2, 5 mM MgCl2, 0.1% OA and 0.02% Tween20). […] Samples were analyzed on TopCounter™ (Packard). The IC50 was calculated using (one site binding competition analysis) GraphPad Prism5 as a measure of receptor affinity.

[2] = Table 6, human functional selectivity (hCTR EC50 / hAmylin-R EC50)
[3] = Table 6a, human functional selectivity (hCTR EC50 / hAmylin-R EC50), at least 5
[4] = human binding ratio, included for comparison

| Ratio hCT/hAmylin funct. [1, 2] | Ratio hCT/hAmylin funct. [1, 3] | Ratio hCT/hAmylin binding (human amylin receptor; [4]) | Ratio hCT/hAmylin funct. ([1]; Table 6i, hCTR funct. EC50 / hAmylin-R funct. EC50) | Ratio hCT/hAmylin funct. ([1]; Table 6j, hCTR funct. EC50 / hAmylin-R funct. EC50) | Ratio hCT/hAmylin funct. ([1]; Table 6k, hCTR funct. EC50 / hAmylin-R funct. EC50) | Ratio hCT/hAmylin binding (human amylin receptor; Table 7b, human calcitonin receptor binding IC50 divided by human amylin receptor binding IC50) | Ratio hCT/hAmylin binding (human amylin receptor; Table 7c, human calcitonin receptor binding IC50 divided by human amylin receptor binding IC50) | Ratio hCT/hAmylin funct. ([1]; hCTR funct. EC50 divided by hAmylin-R funct. EC50) | SMILES |
| --- | --- | --- | --- | --- | --- | --- | --- | --- | --- |
| 5.0 | 5.0 | 4.3 |  |  |  |  |  |  | CC[C@H](C)[C@H](NC(=O)[C@H](C)NC(=O)CNC(=O)[C@H](Cc1ccccc1)NC(=O)[C@H](CC(N)=O)NC(=O)[C@H](CCCCNC(=O)CC[C@H](NC(=O)CC[C@H](NC(=O)CCCCCCCCCCCCCCCCCCC(=O)O)C(=O)O)C(=O)O)NC(=O)[C@H](CO)NC(=O)[C@H](CO)NC(=O)[C@H](Cc1c[nH]cn1)NC(=O)[C@H](CCCNC(=N)N)NC(=O)[C@H](CC(C)C)NC(=O)[C@H](Cc1ccccc1)NC(=O)[C@H](CC(=O)O)NC(=O)[C@H](C)NC(=O)[C@H](CC(C)C)NC(=O)[C@H](CCCNC(=N)N)NC(=O)[C@H](CCC(N)=O)NC(=O)[C@@H](NC(=O)[C@H](C)NC(=O)[C@@H]1CSSC[C@H](NC(=O)[C@@H](N)CCCCN)C(=O)N[C@@H](CC(N)=O)C(=O)N[C@@H]([C@@H](C)O)C(=O)N[C@@H](C)C(=O)N[C@@H]([C@@H](C)O)C(=O)N1)[C@@H](C)O)C(=O)N1CCC[C@H]1C(=O)N[C@@H](CO)C(=O)N[C@@H](CO)C(=O)N[C@H](C(=O)N[C@@H](CC(N)=O)C(=O)N[C@H](C(=O)NCC(=O)N[C@@H](CO)C(=O)N[C@@H](CC(=O)O)C(=O)N[C@H](C(=O)N[C@@H](Cc1ccc(O)cc1)C(N)=O)[C@@H](C)O)C(C)C)[C@@H](C)O [Example 59] (H-KCNTATCATQRLADFLRHSSK([γGlu-γGlu-C20 diacid])NFGAIPSSTNVGSDTY-NH2; disulfide 2-7; N-terminus assumed) |
| 8.9 | 8.9 | 26.0 | 8.9 | 8.9 | 8.9 | 26.0 | 26.0 |  | CC[C@H](C)[C@H](NC(=O)[C@H](C)NC(=O)CNC(=O)[C@H](Cc1ccccc1)NC(=O)[C@H](CC(N)=O)NC(=O)[C@@H]1CCCN1C(=O)[C@H](CO)NC(=O)[C@H](CO)NC(=O)[C@H](Cc1c[nH]cn1)NC(=O)[C@H](CCCNC(=N)N)NC(=O)[C@H](CC(C)C)NC(=O)[C@H](Cc1ccccc1)NC(=O)[C@H](CCC(=O)O)NC(=O)[C@H](C)NC(=O)[C@H](CC(C)C)NC(=O)[C@H](CCCNC(=N)N)NC(=O)[C@H](CCC(N)=O)NC(=O)[C@@H](NC(=O)[C@H](C)NC(=O)[C@@H]1CSSC[C@H](NC(=O)[C@H](CCCCN)NC(=O)CC[C@H](NC(=O)CC[C@H](NC(=O)CCCCCCCCCCCCCCCCCCC(=O)O)C(=O)O)C(=O)O)C(=O)N[C@@H](CC(N)=O)C(=O)N[C@@H]([C@@H](C)O)C(=O)N[C@@H](C)C(=O)N[C@@H]([C@@H](C)O)C(=O)N1)[C@@H](C)O)C(=O)N1CCC[C@H]1C(=O)N[C@@H](CO)C(=O)N[C@@H](CO)C(=O)N[C@H](C(=O)N[C@@H](CC(N)=O)C(=O)N[C@H](C(=O)NCC(=O)N[C@@H](CO)C(=O)N[C@@H](CC(N)=O)C(=O)N[C@H](C(=O)N[C@@H](Cc1ccc(O)cc1)C(N)=O)[C@@H](C)O)C(C)C)[C@@H](C)O [Example 15] ({C20 diacid-γGlu-γGlu}-KCNTATCATQRLAEFLRHSSPNFGAIPSSTNVGSNTY-NH2; disulfide 2-7) |
| 0.9 |  | 1.0 |  |  |  |  |  |  | CC[C@H](C)[C@H](NC(=O)[C@H](C)NC(=O)CNC(=O)[C@H](Cc1ccccc1)NC(=O)[C@H](CC(N)=O)NC(=O)[C@@H]1CCCN1C(=O)[C@H](CO)NC(=O)[C@H](CO)NC(=O)[C@H](Cc1c[nH]cn1)NC(=O)[C@H](CCCNC(=N)N)NC(=O)[C@H](CC(C)C)NC(=O)[C@H](Cc1ccccc1)NC(=O)[C@H](CCC(=O)O)NC(=O)[C@H](C)NC(=O)[C@H](CC(C)C)NC(=O)[C@H](CCCNC(=N)N)NC(=O)[C@H](CCC(N)=O)NC(=O)[C@@H](NC(=O)[C@H](C)NC(=O)[C@@H]1CSSC[C@H](NC(=O)[C@H](CCCCN)NC(=O)CC[C@H](NC(=O)CCCCCCCCCCCCCCCCCCC(=O)O)C(=O)O)C(=O)N[C@@H](CC(N)=O)C(=O)N[C@@H]([C@@H](C)O)C(=O)N[C@@H](C)C(=O)N[C@@H]([C@@H](C)O)C(=O)N1)[C@@H](C)O)C(=O)N1CCC[C@H]1C(=O)N[C@@H](CO)C(=O)N[C@@H](CO)C(=O)N[C@H](C(=O)N[C@@H](CC(N)=O)C(=O)N[C@H](C(=O)NCC(=O)N[C@@H](CO)C(=O)N[C@@H](CC(=O)O)C(=O)N[C@H](C(=O)N1CCC[C@H]1C(N)=O)[C@@H](C)O)C(C)C)[C@@H](C)O [Example 11] ({C20 diacid-γGlu}-KCNTATCATQRLAEFLRHSSPNFGAIPSSTNVGSDTP-NH2; disulfide 2-7) |
| 2.2 |  | 3.9 |  |  |  |  |  | 2.2 | CC[C@H](C)[C@H](NC(=O)[C@H](C)NC(=O)CNC(=O)[C@H](Cc1ccccc1)NC(=O)[C@H](CC(N)=O)NC(=O)[C@@H]1CCCN1C(=O)[C@H](CO)NC(=O)[C@H](CO)NC(=O)[C@H](Cc1c[nH]cn1)NC(=O)[C@H](CCCNC(=N)N)NC(=O)[C@H](CC(C)C)NC(=O)[C@H](Cc1ccccc1)NC(=O)[C@H](CCC(=O)O)NC(=O)[C@H](C)NC(=O)[C@H](CC(C)C)NC(=O)[C@H](CCCNC(=N)N)NC(=O)[C@H](CCC(N)=O)NC(=O)[C@@H](NC(=O)[C@H](C)NC(=O)[C@@H]1CSSC[C@H](NC(=O)[C@H](CCCCN)NC(=O)CC[C@H](NC(=O)CCCCCCCCCCCCCCCCCCC(=O)O)C(=O)O)C(=O)N[C@@H](CC(N)=O)C(=O)N[C@@H]([C@@H](C)O)C(=O)N[C@@H](C)C(=O)N[C@@H]([C@@H](C)O)C(=O)N1)[C@@H](C)O)C(=O)N[C@@H](CC(C)C)C(=O)N1CCC[C@H]1C(=O)N[C@@H](CO)C(=O)N[C@H](C(=O)N[C@@H](CC(N)=O)C(=O)N[C@H](C(=O)NCC(=O)N[C@@H](CO)C(=O)N[C@@H](CCC(=O)O)C(=O)N[C@H](C(=O)N[C@@H](Cc1ccc(O)cc1)C(N)=O)[C@@H](C)O)C(C)C)[C@@H](C)O [Example 33] ({C20 diacid-γGlu}-KCNTATCATQRLAEFLRHSSPNFGAILPSTNVGSETY-NH2; disulfide 2-7) |
| 1.0 |  | 1.2 |  |  |  |  |  |  | CC[C@H](C)[C@H](NC(=O)[C@H](C)NC(=O)CNC(=O)[C@H](Cc1ccccc1)NC(=O)[C@H](CC(N)=O)NC(=O)[C@@H]1CCCN1C(=O)[C@H](CO)NC(=O)[C@H](CO)NC(=O)[C@H](Cc1c[nH]cn1)NC(=O)[C@H](CCCNC(=N)N)NC(=O)[C@H](CC(C)C)NC(=O)[C@H](Cc1ccccc1)NC(=O)[C@H](CC(=O)O)NC(=O)[C@H](C)NC(=O)[C@H](CC(C)C)NC(=O)[C@H](CCCNC(=N)N)NC(=O)[C@H](CCC(N)=O)NC(=O)[C@@H](NC(=O)[C@H](C)NC(=O)[C@@H]1CSSC[C@H](NC(=O)[C@H](CCCCN)NC(=O)CC[C@H](NC(=O)CCCCCCCCCCCCCCCCCCC(=O)O)C(=O)O)C(=O)N[C@@H](CC(N)=O)C(=O)N[C@@H]([C@@H](C)O)C(=O)N[C@@H](C)C(=O)N[C@@H]([C@@H](C)O)C(=O)N1)[C@@H](C)O)C(=O)N1CCC[C@H]1C(=O)N[C@@H](CO)C(=O)N[C@@H](CO)C(=O)N[C@H](C(=O)N[C@@H](CC(N)=O)C(=O)N[C@H](C(=O)NCC(=O)N[C@@H](CO)C(=O)N[C@@H](CC(N)=O)C(=O)N[C@H](C(=O)N1CCC[C@H]1C(N)=O)[C@@H](C)O)C(C)C)[C@@H](C)O [Example 10] ({C20 diacid-γGlu}-KCNTATCATQRLADFLRHSSPNFGAIPSSTNVGSNTP-NH2; disulfide 2-7) |
